Where a name gives a salt, the structure may show the parent alone. Read-outs that look alike come from different tables or passages of the source.
Legend:
[1] = target: JAK1 (recombinant purified GST-tagged catalytic domain) (Homo sapiens (Human), UniProt P23458);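 further: biochemical assay with HTRF read-out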
[2] = target: T1, JAK2 (recombinant purified GST-tagged catalytic domain) (Homo sapiens (Human), UniProt O60674);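 further: biochemical JAK kinase assay with HTRF detection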
[3] = target: T1, JAK2 (recombinant purified GST-tagged catalytic domain); assay: biochemical

JAK1 (recombinant purified GST-tagged catalytic domain), sequence (P23458 875-1153): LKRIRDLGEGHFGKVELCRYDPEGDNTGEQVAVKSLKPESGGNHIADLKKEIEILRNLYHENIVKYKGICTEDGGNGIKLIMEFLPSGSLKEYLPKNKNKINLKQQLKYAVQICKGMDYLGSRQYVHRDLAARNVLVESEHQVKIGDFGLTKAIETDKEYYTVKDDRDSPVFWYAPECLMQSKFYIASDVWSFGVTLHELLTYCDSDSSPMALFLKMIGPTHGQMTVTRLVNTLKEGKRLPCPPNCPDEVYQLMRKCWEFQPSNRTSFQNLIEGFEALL
T1 sequence (O60674 849-1124): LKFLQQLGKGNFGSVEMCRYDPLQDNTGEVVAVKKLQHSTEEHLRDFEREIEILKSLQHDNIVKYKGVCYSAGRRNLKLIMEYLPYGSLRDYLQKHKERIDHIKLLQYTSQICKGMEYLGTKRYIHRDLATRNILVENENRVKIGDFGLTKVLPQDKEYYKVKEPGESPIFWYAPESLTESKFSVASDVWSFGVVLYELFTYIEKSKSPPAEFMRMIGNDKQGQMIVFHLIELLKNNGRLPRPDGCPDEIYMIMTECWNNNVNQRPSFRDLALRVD

Row | Compound | IC50 [1] [nM] | IC50 [2] [nM] | IC50 [3] [nM]
1 | CN[C@H]1CC[C@H](C#N)[C@@H](n2cc(C(N)=O)c(Nc3ccc(F)cc3)n2)C1 (mixture of isomers) [Example 6-5, 1-{[(1S,2S,5S) and (1R,2R,5R)-2-cyano-5-(methylamino)cyclohexyl]-3-[(4-fluorophenyl)amino]-1H-pyrazole-4-carboxamide] | 410 | > 1500 | 
2 | CC[N+]1([C@H]2CC[C@H](n3cc(C(N)=O)c(Nc4ccc(Cl)cc4)n3)[C@@H](C#N)C2)CCC1 [Example 31-3, 1-[(1S,3S,4S)-4-{4-carbamoyl-3-[(4-chlorophenyl)amino]-1H-pyrazol-1-yl}-3-cyanocyclohexyl]-1-ethylazetidinium] | 1 | 28 | 
3 | CC1(C)CC[C@H](C#N)[C@@H](n2cc(C(N)=O)c(Nc3ccccc3)n2)C1 (mixture of isomers) [Example 11-1, 1-{[(1S,2S) and (1R,2R)]-2-Cyano-5,5-dimethylcyclohexyl}-3-(phenylamino)-1H-pyrazole-4-carboxamide] | 54 | 176 | 
4 | CC1(C)CN(C(=O)[C@H]2CC[C@H](n3cc(C(N)=O)c(Nc4ccc(Cl)cc4)n3)[C@@H](C#N)C2)C1 (single isomer, unassigned) [Example 35-1, 3-(4-chlorophenylamino)-1-((1S,2S,4S or 1R,2R,4R)-2-cyano-4-(3,3-dimethylazetidine-1-carbonyl)cyclohexyl)-1H-pyrazole-4-carboxamide] | 6 | 45 | 
5 | N#C[C@@H]1CCC2(C[C@@H]1n1cc(C(N)=O)c(Nc3ccccc3)n1)OCCO2 (single isomer, unassigned) [Example 45-2, 1-[(7S,8R or 7R,8S)-8-Cyano-1,4-dioxaspiro[4.5]dec-7-yl]-3-(phenylamino)-1H-pyrazole-4-carboxamide] | 0.85 | 4 | 
6 | CS(=O)(=O)N[C@@H]1CC[C@H](n2cc(C(N)=O)c(Nc3ccc(F)cc3)n2)[C@@H](C#N)C1 (mixture of isomers) [Example 38-2, 1-{(1S,2S,4R and 1R,2R,4S)-2-cyano-4-[(methylsulfonyl)amino]cyclohexyl}-3-[(4-fluorophenyl)amino]-1H-pyrazole-4-carboxamide] | 0.9 | 12 | 
7 | CS(=O)(=O)c1ccc(Nc2nn([C@H]3CCC[C@H]3C#N)cc2C(N)=O)cc1 (mixture of isomers) [Example 1-5, 1-{[(1S,2R) and (1R,2S)]-2-cyanocyclopentyl]}-3-{[4-(methylsulfonyl)phenyl]amino}-1H-pyrazole-4-carboxamide] | 5 | 82 | 
8 | COCC(C)N(C)[C@H]1CCC(n2cc(C(N)=O)c(Nc3ccc(Cl)cc3)n2)[C@@H](C#N)C1 (single isomer, unassigned) [Example 28-241, 3-[(4-chlorophenyl)amino]-1-[(1R,2S,4S1S,2S,4S or 1R,2R,4R)-2-cyano-4-{[(1S or 1R)-2-methoxy-1-methylethyl](methyl)ami-no}cyclohexyl]-1H-pyrazole-4-carboxamide] | 2 |  | 28
9 | CN[C@@H]1CC[C@H](C#N)[C@@H](n2cc(C(N)=O)c(Nc3ccc(F)cc3)n2)C1 (mixture of isomers) [Example 6-3, 1-{[(1S,2S,5R) and (1R,2R,5S)]-2-cyano-5-(methylamino)cyclohexyl}-3-[(4-fluorophenyl)amino]-1H-pyrazole-4-carboxamide] | 250 | > 1500 | 
10 | CC1(C)C[N+](C)([C@H]2CC[C@H](n3cc(C(N)=O)c(Nc4ccc(Cl)cc4)n3)[C@@H](C#N)C2)C1 [Example 31-4, 1-[(1S,3S,4S)-4-{4-carbamoyl-3-[(4-chlorophenyl)amino]-1H-pyrazol-1-yl}-3-cyanocyclohexyl]-1,3,3-trimethylazetidinium] | 1 | 34 | 
11 | N#C[C@@H]1CCC2(C[C@H]1n1cc(C(N)=O)c(Nc3ccccc3)n1)OCCO2 (single isomer, unassigned) [Example 45-1, 1-[(7R,8R or 7S,8S)-8-Cyano-1,4-dioxaspiro[4.5]dec-7-yl]-3-(phenylamino)-1H-pyrazole-4-carboxamide] | 44 | 235 | 
12 | CC(C)(C)OC(=O)C1CC[C@H](C#N)[C@@H](n2cc(C(N)=O)c(Nc3ccccc3)n2)C1 (mixture of isomers) [Example 12-1, (3S,4S and 3R,4R)-tert-butyl 3-(4-carbamoyl-3-(phenylamino)-1H-pyrazol-1-yl)-4-cyanocyclohexanecarboxylate] | 7 | 50 | 
13 | N#C[C@@H]1CCC[C@@H]1n1cc(C(N)=O)c(Nc2ccccc2)n1 (mixture of isomers) [Example 1-1, 1-{[(1S,2R) and (1R,2S)]-2-cyanocyclopentyl]}-3-(phenylamino)-1H-pyrazole-4-carboxamide] | 96 | 696 | 
14 | CS(=O)(=O)c1ccc(Nc2nn(C3CCCCC3C#N)cc2C(N)=O)cc1 (centres unmarked) [Example 2-15, 1-(2-cyanocyclohexyl)-3-{[4-(methylsulfonyl)phenyl]amino}-1H-pyrazole-4-carboxamide] |  | 9 | 
15 | N#C[C@H]1C[C@H](O)CC[C@@H]1n1cc(C(N)=O)c(Nc2ccc(C(F)(F)F)cc2)n1 (single isomer, unassigned) [Example 25-24, 1-[(1S,2S,4R or 1R,2R,4S)-2-cyano-4-hydroxycyclohexyl]-3-{[4-(trifluoromethyl)phenyl]amino}-1H-pyrazole-4-carboxamide] | 1 |  | 8
16 | CS(=O)(=O)c1ccc(Nc2nn([C@H]3CCCC[C@@H]3C#N)cc2C(N)=O)cc1 (single isomer, unassigned) [Example 42-2, 1-[(1S,2S or 1R,2R)-2-cyanocyclohexyl]-3-{[4-(methylsulfonyl)phenyl]amino}-1H-pyrazole-4-carboxamide] |  | 27 | 
17 | CS(=O)(=O)c1ccc(Nc2nn([C@H]3CCCC[C@H]3C#N)cc2C(N)=O)cc1 (single isomer, unassigned) [Example 42-4, 1-[(1S,2R or 1R,2S)-2-cyanocyclohexyl]-3-{[4-(methylsulfonyl)phenyl]amino}-1H-pyrazole-4-carboxamide] |  | 7 | 
18 | N#C[C@H]1C[C@@H]([N+]2(CC3CC3)CCC2)CC[C@@H]1n1cc(C(N)=O)c(Nc2ccc(Cl)cc2)n1 [Example 31-5, 1-[(1S,3S,4S)-4-{4-carbamoyl-3-[(4-chlorophenyl)amino]-1H-pyrazol-1-yl}-3-cyanocyclohexyl]-1-(cyclopropylmethyl)azetidinium] | 0.85 |  | 
19 | CN(C)[C@H]1CC[C@H](n2cc(C(N)=O)c(Nc3ccc(S(=O)(=O)C(F)(F)F)cc3)n2)[C@@H](C#N)C1 (mixture of isomers) [Example 27-1, 1-[(1S,3S,4S and 1R,3R,4R)-4-[4-carbamoyl-3-({4-[(trifluoromethyl)sulfonyl]phenyl}amino)-1H-pyrazol-1-yl]-3-cyano-N,N-dimethylcyclohexanaminium trifluoroacetate] | 0.2 |  | 

Now from value to compound, other results behind:

Row | IC50 [1] [nM] | IC50 [2] [nM] | Compound | IC50 [3] [nM]
20 | 257 | > 1500 | CC(C)(C)OC(=O)C1CC[C@@H](C#N)[C@@H](n2cc(C(N)=O)c(Nc3ccccc3)n2)C1 (mixture of isomers) [Example 12-2, (3S,4R and 3R,4S)-tert-butyl 3-(4-carbamoyl-3-(phenylamino)-1H-pyrazol-1-yl)-4-cyanocyclohexanecarboxylate] | 
21 | 5 | 87 | N#C[C@H]1C[C@@H](N2CCC2)CC[C@@H]1n1cc(C(N)=O)c(Nc2ccc(OC(F)F)nc2)n1 (single isomer, unassigned) [Example 28-3, 1-[(1S,2S,4S or 1R,2R,4R)-4-(azetidin-1-yl)-2-cyanocyclohexyl]-3-{[6-(difluoromethoxy)pyridin-3-yl]amino}-1H-pyrazole-4-carboxamide] | 
22 | 13 | 59 | N#C[C@@H]1CCC2(C[C@@H]1n1cc(C(N)=O)c(Nc3ccccc3)n1)OCCO2 (single isomer, unassigned) [Example 45-4, 1-[(7S,8R or 7R,8S)-8-Cyano-1,4-dioxaspiro[4.5]dec-7-yl]-3-(phenylamino)-1H-pyrazole-4-carboxamide] | 
23 | 18 | 119 | N#C[C@H]1CCCC[C@@H]1n1cc(C(N)=O)c(Nc2cc(Cl)cc(Cl)c2)n1 (single isomer, unassigned) [Example 17-54, 1-[(1S,2S or 1R, 2R)-2-cyanocyclohexyl]-3-[(3,5-dichlorophenyl)amino]-1H-pyrazole-4-carboxamide] | 
24 | 11 | 50 | CC1(C)CC[C@@H](C#N)[C@@H](n2cc(C(N)=O)c(Nc3ccccc3)n2)C1 (mixture of isomers) [Example 11-2, 1-{[(1S,2R) and (1R,2S)]-2-Cyano-5,5-dimethylcyclohexyl}-3-(phenylamino)-1H-pyrazole-4-carboxamide] | 
25 |  | 85 | CS(=O)(=O)c1ccc(Nc2nn([C@H]3CCCC[C@H]3C#N)cc2C(N)=O)cc1 (single isomer, unassigned) [Example 42-3, 1-[(1S,2R or 1R,2S)-2-cyanocyclohexyl]-3-{[4-(methylsulfonyl)phenyl]amino}-1H-pyrazole-4-carboxamide] | 
26 |  | 109 | N#C[C@@H]1CCCC[C@@H]1n1cc(C(N)=O)c(Nc2ccc(CC(=O)O)cc2)n1 (mixture of isomers) [Example 3-1, [4-({4-carbamoyl-1-[(1S,2R and 1R,2S)-2-cyanocyclohexyl]-1H-pyrazol-3-yl}amino)phenyl]acetic acid] | 
27 | 16 |  | Cc1cncc(Nc2nn([C@H]3CCCC[C@@H]3C#N)cc2C(N)=O)c1 [Example 17-73, 1-[(1S,2S)-2-cyanocyclohexyl]-3-[(5-methylpyridin-3-yl)amino]-1H-pyrazole-4-carboxamide] | 
28 | 1 |  | CC1(C)CN([C@H]2CC[C@H](n3cc(C(N)=O)c(Nc4ccnc(F)c4)n3)[C@@H](C#N)C2)C1 (single isomer, unassigned) [Example 28-134, 1-[(1S,2S,4S or 1R,2R,4R )-2-cyano-4-(3,3-dimethylazetidin-1-yl)cyclohexyl]-3-[(2-fluoropyridin-4-yl)amino]-1H-pyrazole-4-carboxamide] | 

— patent US8962608B2, “Cycloalkylnitrile pyrazole carboxamides as janus kinase inhibitors” (Merck Sharp & Dohme Corp., priority 2011, dated 2015)
